In patent publication US10618902B2, “Substituted pyrido[2,3-d]pyrimidines as inhibitors of protein kinases” (Celgene CAR LLC, priority 2013, dated 2020):
pIC50: −log10 of the molar value. Where two headings read alike, the source gives them in different places.

Legend:
pFGFR4 (Huh7 cells) = pFGFR4 (Huh7 cells) (Homo sapiens (Human), UniProt P22455); assay: FGFR4 signaling (pFGFR4) in Huh7 cells (MSD); assay type: cell-based; settings: read-out: Signaling EC50 (nM) pFGFR4 (Huh)
FGFR4-WT = FGFR4-WT (Homo sapiens (Human), UniProt P22455); assay: Omnia assay for potency against FGFR4 enzyme; assay type: biochemical; settings: method a: FGFR4-WT (Invitrogen) 10 nM, ATP 300 uM, Y10-Sox 10 uM
Sequence of FGFR4-WT (P22455 22-802): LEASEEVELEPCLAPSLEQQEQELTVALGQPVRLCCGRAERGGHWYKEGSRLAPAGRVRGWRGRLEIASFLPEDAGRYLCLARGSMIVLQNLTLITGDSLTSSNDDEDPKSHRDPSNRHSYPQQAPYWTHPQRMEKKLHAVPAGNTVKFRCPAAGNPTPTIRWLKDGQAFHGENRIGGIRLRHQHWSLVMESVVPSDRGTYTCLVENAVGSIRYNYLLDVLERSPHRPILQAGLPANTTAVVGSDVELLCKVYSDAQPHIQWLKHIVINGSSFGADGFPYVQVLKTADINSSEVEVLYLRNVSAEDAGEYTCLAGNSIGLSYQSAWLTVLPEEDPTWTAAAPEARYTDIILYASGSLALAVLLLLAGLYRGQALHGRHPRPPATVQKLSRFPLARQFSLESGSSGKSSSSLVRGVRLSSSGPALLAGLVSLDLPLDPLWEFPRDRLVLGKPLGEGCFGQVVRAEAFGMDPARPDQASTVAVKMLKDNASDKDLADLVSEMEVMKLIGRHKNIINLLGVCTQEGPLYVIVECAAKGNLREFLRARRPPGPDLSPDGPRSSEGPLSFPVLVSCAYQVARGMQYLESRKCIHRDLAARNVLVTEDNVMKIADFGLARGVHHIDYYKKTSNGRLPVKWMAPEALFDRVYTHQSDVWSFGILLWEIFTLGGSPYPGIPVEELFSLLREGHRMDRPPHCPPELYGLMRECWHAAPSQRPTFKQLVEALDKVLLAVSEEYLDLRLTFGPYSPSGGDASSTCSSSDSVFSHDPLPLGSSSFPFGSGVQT
Procedure: A 10× stock solution of FGFR4-WT (PR4380C or P3054), (from Invitrogen, Carlsbad, Calif.) corresponding to method a in Table 10, was prepared as described below. Alternatively, a 10× stock solution of FGFR4-WT (F01-11G), (SignalChem, Richmond, BC) corresponding to method b in Table 10, was prepared as described below. A solution of 1.4×ATP (AS001A) and 5× Tyr-Sox conjugated peptide substrate (KNZ3101) were prepared in 1× kinase reaction buffer consisting of 20 mM Tris, pH 7.5, 5 mM MgCl2, 1 mM EGTA, 5 mM […], 5% glycerol (10× stock, KB002A) and 0.2 mM DTT (DS001A). […] The serially diluted compounds were prepared on a Tecan EVO100. A second addition of 10 μl of Tyr-Sox FGFR4 substrate was added to each well and the kinase reactions were started with the addition of 35 μL of 1.4×ATP. The reactions were monitored every 71 seconds for 240 minutes at λex360/λem485 in a Synergy plate reader from BioTek (Winooski, Vt.). […] Methods:
a) [FGFR4-WT]=10 nM, [ATP]=300 uM, [Y10-Sox]=10 uM (ATP KMapp−300 uM),

Huh7 cells = assay: Cell proliferation, Huh7 (CellTiter Glo); assay type: cell-based
Procedure: (§1) The growth inhibition (GI50) values were determined by Graph Pad Prism.

MDA-MB-453 cells = assay: Cell proliferation, MDA-MB-453 (CellTiter Glo); assay type: cell-based; settings: Homo sapiens, 96 hr
Procedure: as §1

[1] = 120 hr, read-out: Cell Proliferation GI50 (nM) HUH

Sequence of pFGFR4 (Huh7 cells) (P22455 22-802): as above

Compound	EC50 (pFGFR4 (Huh7 cells)) [nM]	pIC50 (FGFR4-WT)	GI50 (Huh7 cells; [1]) [nM]	GI50 (Huh7 cells; Homo sapiens, Huh-7, 120 hr) [nM]	GI50 (MDA-MB-453 cells) [nM]
C#CC(=O)N[C@H]1COC[C@H]1Nc1ncc2cc(-c3c(Cl)c(OC)cc(OC)c3Cl)c(=O)n(C)c2n1 [Compound I-251]	< 100	> 7.00			
C=CC(=O)Nc1ccc(C(F)(F)F)cc1Nc1ncc2cc(-c3c(Cl)c(OC)cc(OC)c3Cl)c(=O)n(C)c2n1 [Compound I-258]	< 100	> 7.00			
C=CC(=O)NC1CN(c2ccn(C)n2)CC1Nc1ncc2cc(-c3c(Cl)c(OC)cc(OC)c3Cl)c(=O)n(C)c2n1 (centres unmarked) [Compound I-248]	< 100	> 7.00		< 100	
C=CC(=O)Nc1cc(-c2ccn(C)n2)ccc1Nc1ncc2cc(-c3c(Cl)c(OC)cc(OC)c3Cl)c(=O)n(C)c2n1 [Compound I-267]	< 100	> 7.00			
C=CC(=O)N[C@H]1COC[C@H]1Nc1ncc2cc(-c3c(Cl)c(OC)cc(OC)c3Cl)c(=O)n(C)c2n1 [Compound I-241]					< 100
C=CC(=O)NC1CS(=O)(=O)CC1Nc1ncc2cc(-c3c(Cl)c(OC)cc(OC)c3Cl)c(=O)n(C)c2n1 (centres unmarked) [Compound I-256]	< 100	> 7.00			
C=CC(=O)Nc1cc(F)c(F)cc1Nc1ncc2cc(-c3c(Cl)c(OC)cc(OC)c3Cl)c(=O)n(C)c2n1 [Compound I-257]	< 100	> 7.00		101 to 500	
C=CC(=O)NC1CN(C(C)=O)CC1Nc1ncc2c(n1)N(C)C(=O)N(c1c(Cl)c(OC)cc(OC)c1Cl)C2 (racemic) [Compound I-139]		> 7.00			
C=CC(=O)Nc1cccc(F)c1Nc1ncc2cc(-c3c(Cl)c(OC)cc(OC)c3Cl)c(=O)n(C)c2n1 [Compound I-259]	< 100	> 7.00		101 to 500	
C=CS(=O)(=O)N[C@H]1CCC[C@H]1Nc1ncc2cc(-c3c(Cl)c(OC)cc(OC)c3Cl)c(=O)n(C)c2n1 [Compound I-253]	< 100	> 7.00			
C=CC(=O)N[C@H]1COC[C@H]1Nc1ncc2cc(-c3cc(OC)cc(OC)c3F)c(=O)n(C)c2n1 [Compound I-274]	< 100	> 7.00			
C=CC(=O)N[C@H]1COC[C@H]1Nc1ncc2cc(-c3cc(C(=O)Nc4cccc(C(C)(C)C)c4)ccc3Cl)c(=O)n(C)c2n1 [Compound I-265]	< 100	> 7.00			
C=CC(=O)NC1CCCCC1Nc1ncc2c(n1)N(CCF)C(=O)N(c1c(Cl)c(OC)cc(OC)c1Cl)C2 (racemic) [Compound I-106]		6.30 to 7.00			
C=CC(=O)Nc1cc(-c2cnn(C)c2)ccc1Nc1ncc2cc(-c3c(Cl)c(OC)cc(OC)c3Cl)c(=O)n(C)c2n1 [Compound I-264]	< 100	> 7.00			
C=CC(=O)NC1CN(c2ccccn2)CC1Nc1ncc2cc(-c3c(Cl)c(OC)cc(OC)c3Cl)c(=O)n(C)c2n1 (centres unmarked) [Compound I-252]	< 100	> 7.00			
C=CC(=O)N[C@H]1COC[C@H]1Nc1ncc2cc(-c3cc(OC)cc(OC)c3Cl)c(=O)n(C)c2n1 [Compound I-254]			101 to 500		
C=CC(=O)NC1CN(C)CC1Nc1ncc2c(n1)N(C)C(=O)N(c1c(Cl)c(OC)cc(OC)c1Cl)C2 (racemic) [Compound I-138]		6.30 to 7.00			

More lines, now with the values ahead:

EC50 (pFGFR4 (Huh7 cells)) [nM]	pIC50 (FGFR4-WT)	GI50 (Huh7 cells; [1]) [nM]	GI50 (Huh7 cells; Homo sapiens, Huh-7, 120 hr) [nM]	GI50 (MDA-MB-453 cells) [nM]	Compound
< 100	> 7.00	101 to 500			C=CC(=O)N[C@H]1COC[C@H]1Nc1ncc2cc(-c3c(Cl)c(OC)cc(OC)c3Cl)c(=O)nc-2n1CCO [Compound I-303]
101 to 500	> 7.00				C=CC(=O)NC1CC(O)CC1Nc1ncc2cc(-c3c(Cl)c(OC)cc(OC)c3Cl)c(=O)n(C)c2n1 (centres unmarked) [Compound I-284]
< 100	> 7.00	< 100			C=CC(=O)N[C@H]1COC[C@H]1Nc1ncc2cc(-c3c(Cl)c(OC)cc(OCC)c3Cl)c(=O)n(C)c2n1 [Compound I-291]
< 100	> 7.00		< 100		C=CC(=O)N[C@H]1COC[C@H]1Nc1ncc2cc(-c3c(Cl)c(OC)cc(OC)c3Cl)c(=O)[nH]c2n1 [Compound I-290]
< 100	> 7.00		< 100		C=CC(=O)N[C@H]1CN(c2cc[nH]n2)C[C@H]1Nc1ncc2cc(-c3c(Cl)c(OC)cc(OC)c3Cl)c(=O)n(C)c2n1 [Compound I-292]
101 to 500	> 7.00				C=CC(=O)Nc1c(Nc2ncc3cc(-c4c(Cl)c(OC)cc(OC)c4Cl)c(=O)n(C)c3n2)ccc(F)c1F [Compound I-282]
< 100	> 7.00				C=CC(=O)NC1CC(F)(F)CC1Nc1ncc2cc(-c3c(Cl)c(OC)cc(OC)c3Cl)c(=O)n(C)c2n1 (centres unmarked) [Compound I-288]
< 100	> 7.00				C=CC(=O)Nc1nc(C)ccc1Nc1ncc2cc(-c3c(Cl)c(OC)cc(OC)c3Cl)c(=O)n(C)c2n1 [Compound I-278]
101 to 500	6.30 to 7.00				C=CC(=O)N[C@@H]1CN(c2cc[nH]n2)C[C@@H]1Nc1ncc2cc(-c3c(Cl)c(OC)cc(OC)c3Cl)c(=O)n(C)c2n1 [Compound I-293]
< 100	> 7.00	101 to 500			C=CC(=O)N[C@H]1COC[C@H]1Nc1ncc2cc(-c3c(Cl)c(OC)cc(OC)c3Cl)c(=O)nc-2n1C[C@H]1CCN(C(C)=O)C1 [Compound I-299]
< 100	> 7.00				C=CC(=O)N[C@H]1COC[C@H]1Nc1ncc2cc(-c3c(Cl)c(OC)cc(OC)c3Cl)c(=O)n(C(C)C)c2n1 [Compound I-296]
< 100	> 7.00	101 to 500			C=CC(=O)N[C@H]1COC[C@H]1Nc1ncc2cc(-c3cc(OC)cc(OC)c3Cl)c(=O)n(CC3CCN(C(C)=O)C3)c2n1 (some centres unmarked) [Compound I-308]
< 100	> 7.00				C=CC(=O)N[C@H]1COC[C@H]1Nc1ncc2cc(-c3cc(OC)cc(OC)c3Cl)c(=O)nc-2n1C [Compound I-306]
< 100	> 7.00				C=CC(=O)N[C@H]1COC[C@H]1Nc1ncc2cc(-c3c(Cl)c(OC)cc(OC)c3Cl)c(=O)nc-2n1C1CCOCC1 [Compound I-300]
			101 to 500		C=CC(=O)N[C@H]1COC[C@H]1Nc1ncc2cc(-c3c(C)c(OC)cc(OC)c3C)c(=O)n(C)c2n1 [Compound I-294]
< 100	> 7.00		101 to 500		C=CC(=O)N[C@H]1COC[C@H]1Nc1ncc2cc(-c3c(Cl)c(OC)cc(OC)c3Cl)c(=O)n(C[C@@H]3CCN(C(C)=O)C3)c2n1 [Compound I-307]
< 100	> 7.00	< 100			C=CC(=O)N[C@H]1COC[C@H]1Nc1ncc2cc(-c3c(Cl)c(OC)cc(OC)c3Cl)c(=O)n(CCOC)c2n1 [Compound I-295]
< 100	> 7.00				C=CC(=O)NC1CC(=O)CC1Nc1ncc2cc(-c3c(Cl)c(OC)cc(OC)c3Cl)c(=O)n(C)c2n1 (centres unmarked) [Compound I-286]
< 100	> 7.00	< 100			C=CC(=O)N[C@H]1COC[C@H]1Nc1ncc2cc(-c3cc(OC)cc(OC)c3Cl)c(=O)nc-2n1C[C@H]1CCN(C(C)=O)C1 [Compound I-301]
< 100	> 7.00	< 100			C=CC(=O)N[C@H]1COC[C@H]1Nc1ncc2cc(-c3c(Cl)c(OC)cc(OC)c3Cl)c(=O)nc-2n1CC1CCOC1 (some centres unmarked) [Compound I-298]
< 100	> 7.00				C=CC(=O)N[C@H]1COC[C@H]1Nc1ncc2cc(-c3c(Cl)c(OC)cc(OC)c3Cl)c(=O)nc-2n1CCF [Compound I-304]
